The source of these data is paper PMC9631343 (ACS Bio & Med Chem Au, 2022).

This data set can be described thus: in vitro. Particulars: African green monkey.
Compound `O=c1[nH]cnc2c([C@@H]3N[C@H](CO)[C@@H](O)[C@H]3O)c[nH]c12` [forodesine] came in with a CC50 greater than 100 µM.

Compound `CC(C)Nc1nc2cc(Cl)c(Cl)cc2n1[C@H]1O[C@@H](CO)[C@H](O)[C@@H]1O` [maribavir] showed a CC50 greater than 100 µM. As for `CC(C)C(=O)OC[C@H]1O[C@@H](n2ccc(NO)nc2=O)[C@H](O)[C@@H]1O` [molnupiravir], the CC50 is greater than 100 µM. `COc1nc(N)nc2c1ncn2[C@@H]1O[C@H](CO)[C@@H](O)[C@@H]1O` [nelarabine] returned a CC50 greater than 100 µM. Consider `CCC(CC)COC(=O)[C@H](C)N[P@](=O)(OC[C@H]1O[C@@](C#N)(c2ccc3c(N)ncnn23)[C@H](O)[C@@H]1O)Oc1ccccc1` [remdesivir], for which the CC50 is greater than 100 µM. For `CC(C)=CCNc1ncnc2c1ncn2[C@@H]1O[C@H](CO)[C@@H](O)[C@H]1O` [riboprine, N^6-(2-Isopentenyl)adenosine] the value was greater than 100 µM; for `OC[C@H]1O[C@@H](n2cnc3c(N[C@@H]4CCOC4)ncnc32)[C@H](O)[C@@H]1O` [tecadenoson], greater than 100 µM; for `Nc1ncnc2c1ncn2[C@@H]1O[C@H](CO)[C@@H](O)[C@@H]1O` [vidarabine, Arabinosyladenine], greater than 100 µM.
